The values below come from US9145415B2, “Nitrogen-containing heterocyclic compound or salt thereof” (FUJIFILM Corporation, priority 2012, dated 2015).

The structures appear in SMILES notation. Read-outs that look alike come from different tables or passages of the source.

In test [1] the target is T1, human FLT3 protein (FLT3 (WT)) (Homo sapiens, UniProt P36888).
T1 construct: human FLT3 protein (intracellular region, 564 to 993 aa); GST; purchased Carna Biosciences; host or cells: baculovirus expression system
T1 sequence (P36888 564-993): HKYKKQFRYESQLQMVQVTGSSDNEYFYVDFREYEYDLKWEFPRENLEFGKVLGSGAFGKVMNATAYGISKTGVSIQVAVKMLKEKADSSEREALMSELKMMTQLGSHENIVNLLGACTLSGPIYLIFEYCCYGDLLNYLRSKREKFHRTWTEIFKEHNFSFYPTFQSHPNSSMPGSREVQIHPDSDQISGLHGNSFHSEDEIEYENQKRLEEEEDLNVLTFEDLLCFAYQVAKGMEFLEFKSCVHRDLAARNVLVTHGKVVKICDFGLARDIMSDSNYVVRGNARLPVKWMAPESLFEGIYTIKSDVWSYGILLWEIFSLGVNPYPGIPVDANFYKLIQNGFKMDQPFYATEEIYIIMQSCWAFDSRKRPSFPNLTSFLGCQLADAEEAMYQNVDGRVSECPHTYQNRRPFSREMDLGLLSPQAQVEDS
Put plainly: FLT3 inhibition test (FLT3 enzyme inhibition, time-resolved fluorescence of substrate peptide phosphorylation). The class given is biochemical. Put shortly: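 Wild-type human FLT3 (1.2 μg) pre-incubated with compound 15 min at 25° C in 100 mM HEPES pH 7.5, 10 mM MgCl2, 25 mM NaCl, 1 mM DTT. Reaction started with substrate peptide and ATP (final 50 μM), run 30 min at 25° C; phosphorylation read by time-resolved fluorescence.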

In the next test the test system is MV4-11 cells. Description: Leukemia cell proliferation inhibition test (ATPlite), MV4-11. It is filed as cell-based. Conditions: Homo sapiens, read-out: MV4-11 cell proliferation inhibition effect. In short, it runs like this: (§1)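 Molm-13 or MV4-11 cells at 10,000 cells/well in RPMI with 10% FBS and pen/strep were exposed to serially diluted compound for 72 h at 37 °C, 5% CO2. Total cellular ATP was read by luciferase luminescence. GI50 was taken relative to 0.1% DMSO control, from duplicates by sigmoid non-linear regression.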
A general note: Cellular ATP, detected with luciferase, serves as a proxy for viable cell number.

For another test, the system named is Molm-13 cells. Put plainly: Leukemia cell proliferation inhibition test (ATPlite), Molm-13. It is filed as cell-based. The conditions noted are these: Homo sapiens, read-out: MOLM13 cell proliferation inhibition effect. Put shortly: as §1
[2] abbreviates: GST-fused human FLT3 (564 to 993 aa), ATP 50 μM, read-out: FLT3 (WT) enzyme inhibition activity.
Where [3] appears, read: MV4-11, 72 h, MV4-11, 72 hours culture, ATPlite, GI50 per method.
The mark [4] stands for this setting: MOLM-13, 72 h, Molm-13, 72 hours culture, ATPlite, GI50 per method.
Where [5] appears, read: FLT3 (WT), read-out: FLT3 (WT) enzyme inhibition activity.

With `CCCNc1nc(Nc2cccc(F)c2)ncc1C(=O)Nc1cccc(NC(=O)[C@H](C)N(C)C(=O)/C=C/CN(C)C)c1` [Compound 6-4, (S,E)-N-(3-(2-(4-(dimethylamino)-N-methyl-2-butenamido)propanamido)phenyl)-2-((3-fluorophenyl)amino)-4-(propylamino)pyrimidine-5-carboxamide], the IC50 (in test [1] (setting [2]); in the test on MV4-11 cells (setting [3]); in the test with Molm-13 cells (setting [4])) was under 10 nM in each case.
As to `CCCNc1nc(Nc2ccc(C(N)=O)cc2)ncc1C#CCCCNC(=O)CNC(=O)/C=C/CN(C)C` [Compound 7-2], the IC50 (in test [1] (setting [2]); in the test with MV4-11 cells (setting [3]); with Molm-13 cells (setting [4])) was under 10 nM throughout.
Regarding `CCCNc1nc(Nc2cccc(F)c2)ncc1C#C[C@H]1C[C@@H](NC(=O)[C@H](C)N(C)C(=O)/C=C/CN(C)C)C1` [Compound 13-8, (E)-4-(Dimethylamino)-N—((S)-1-(((1S,3R)-3-((2-((3-fluorophenyl)amino)-4-(propylamino)pyrimidin-5-yl)ethynyl)cyclobutyl)amino)-1-oxopropan-2-yl)-N-methyl-2-butenamide], the IC50 (in test [1] (setting [2]); with MV4-11 cells (setting [3]); in the test with Molm-13 cells (setting [4])) was under 10 nM in each case.
For `CCCNc1nc(Nc2cccc(F)c2)ncc1C#C[C@@H]1CC[C@H](NC(=O)[C@H](C)N(C)C(=O)/C=C/CN(C)C)C1` [Compound 13-10], the IC50 (in test [1] (setting [2]); in the test on MV4-11 cells (setting [3]); in the test on Molm-13 cells (setting [4])) was under 10 nM in each case.
As for `COCCNc1nc(Nc2ccc(C#N)cc2)ncc1C#CCCCNC(=O)[C@H](C)N(C)C(=O)/C=C/CN(C)C` [Compound 10-50], the IC50 (in test [1] (setting [2]); in the test on MV4-11 cells (setting [3]); in the test on Molm-13 cells (setting [4])) was under 10 nM in each case.
Turning to `CCCNc1nc(Nc2ccc(C(N)=O)cc2)ncc1C(=O)Nc1cccc(NC(=O)[C@H](C)N(C)C(=O)/C=C/CNCCF)c1` [Compound 4-10], the IC50 in test [1] (FLT3 (WT) enzyme inhibition activity, GST-fused human FLT3 (564 to 993 aa), ATP 50 μM) is under 10 nM; in the test with MV4-11 cells (setting [3]) it was under 10 nM; in the test with Molm-13 cells (setting [4]) it was under 10 nM.
With `CNc1ncc(C#CCCCNC(=O)[C@H](C)N(C)C(=O)/C=C/CN(C)C)c(Nc2ccc(OC)nc2)n1` [Compound 22-23], the IC50 in test [1] (setting [5]) was under 10 nM; with MV4-11 cells (MV4-11, MV4-11 cell) it was under 10 nM; in the test on Molm-13 cells (MOLM-13, MOLM13 cell), under 10 nM.
Regarding `CCCNc1nc(Nc2ccc(C(N)=O)cc2)ncc1C(=O)NCCCNC(=O)[C@H](C)NC(=O)/C=C/CN(C)C` [Compound 5-4], the IC50 in test [1] (setting [2]) was under 10 nM; in the test with MV4-11 cells (setting [3]) it was 100 to 1000 nM; with Molm-13 cells (setting [4]) it was 100 to 1000 nM.
In the case of `CCCNc1nc(Nc2ccc(C#N)cc2)ncc1/C=C\CNC(=O)CCCNC(=O)/C=C/CN(C)C` [Compound 7-96], the IC50 is 10 to 100 nM in test [1] (setting [2]), 100 to 1000 nM in the test on MV4-11 cells (setting [3]) and over 1000 nM in the test with Molm-13 cells (setting [4]).
Consider `C[C@@H](C(=O)N[C@H]1CCC[C@@H](C#Cc2cnc(Nc3cccc(C#N)c3)nc2NC2CC2)C1)N(C)C(=O)/C=C/CN(C)C` [Compound 21-47], for which the IC50 is under 10 nM in test [1] (setting [5]); under 10 nM with MV4-11 cells (MV4-11, MV4-11 cell); under 10 nM in the test on Molm-13 cells (MOLM-13, MOLM13 cell).
Regarding `C=CC(=O)Nc1cccc(NC(=O)c2cnc(NCCc3ccncc3)nc2NCCC)c1` [Compound 2-25], the IC50 in test [1] (setting [2]) fell in the range of 10 to 100 nM; with MV4-11 cells (setting [3]), 100 to 1000 nM; in the test with Molm-13 cells (setting [4]) it was 100 to 1000 nM.
Turning to `C[C@@H](C(=O)NCCCC#Cc1cnc(Nc2ccc(C#N)cc2)nc1N1CCCC1)N(C)C(=O)/C=C/CN(C)C` [Compound 9-1, (S,E)-N-(1-((5-(2-((4-cyanophenyl)amino)-4-(pyrrolidin-1-yl)pyrimidin-5-yl)-4-pentyn-1-yl)amino)-1-oxopropan-2-yl)-4-(dimethylamino)-N-methyl-2-butenamide], the IC50 (in test [1] (setting [2]); in the test on MV4-11 cells (setting [3]); in the test on Molm-13 cells (setting [4])) was under 10 nM in each case.
`C=CC(=O)N(C)[C@@H](C)C(=O)NCCCC#Cc1cnc(Nc2cccc(C#N)c2)nc1N1CCOCC1` [Compound 9-4]: the IC50 was under 10 nM in test [1] (setting [2]), 10 to 100 nM with MV4-11 cells (setting [3]) and 10 to 100 nM with Molm-13 cells (setting [4]).
As for `CCCNc1nc(Nc2ccc3c(c2)c(F)nn3C)ncc1C#CCCCNC(=O)[C@H](C)N(C)C(=O)/C=C/CN(C)C` [Compound 22-60], the IC50 in test [1] (setting [5]) is under 10 nM; in the test on MV4-11 cells (MV4-11, MV4-11 cell), under 10 nM; in the test with Molm-13 cells (MOLM-13, MOLM13 cell) it was under 10 nM.
In the case of `C[C@@H](C(=O)NCCCC#Cc1cnc(Nc2ccc(C#N)cc2)nc1N1CCCC(F)(F)C1)N(C)C(=O)/C=C/CN(C)C` [Compound 10-44], the IC50 (in test [1] (setting [2]); in the test with MV4-11 cells (setting [3]); with Molm-13 cells (setting [4])) was under 10 nM each time.
Consider `CNc1nc(Nc2ccc(OC)c(F)c2)ncc1C#CCCCNC(=O)[C@@H]1CCCN1C(=O)/C=C/CN(C)C` [Compound 21-42], for which the IC50 in test [1] (setting [5]) is under 10 nM; in the test on MV4-11 cells (MV4-11, MV4-11 cell), under 10 nM; with Molm-13 cells (MOLM-13, MOLM13 cell), under 10 nM.
Take `CCCNc1nc(Nc2ccc(C(N)=O)cc2)ncc1C(=O)Nc1cccc(NC(=O)[C@H](C)N(C)C(=O)/C=C/CNC(C)(C)C)c1` [Compound 4-4]: the IC50 (in test [1] (setting [2]); in the test with MV4-11 cells (setting [3]); with Molm-13 cells (setting [4])) was under 10 nM in each case.
On to `CCCNc1nc(Nc2cncc(Cl)c2)ncc1C#CCCCNC(=O)[C@H](C)N(C)C(=O)/C=C/CN(C)C` [Compound 22-9], for which the IC50 is under 10 nM in test [1] (setting [5]); 10 to 100 nM in the test on MV4-11 cells (MV4-11, MV4-11 cell); 10 to 100 nM in the test on Molm-13 cells (MOLM-13, MOLM13 cell).
With `CCCNc1nc(Nc2cccc(C#N)c2)ncc1C#CCCCNC(=O)[C@H](C)N(C)C(=O)/C=C/CN(C)C` [Compound 7-3, (S,E)-N-(1-((5-(2-((3-Cyanophenyl)amino)-4-(propylamino)pyrimidin-5-yl)-4-pentyn-1-yl)amino)-1-oxopropan-2-yl)-4-(dimethylamino)-N-methyl-2-butenamide], the IC50 (in test [1] (setting [2]); in the test on MV4-11 cells (setting [3]); in the test with Molm-13 cells (setting [4])) was under 10 nM in each case.
With `CCCNc1nc(Nc2ccc(C#N)c(C)c2)ncc1C#CCCCNC(=O)[C@H](C)N(C)C(=O)/C=C/CN(C)C` [Compound 21-3], the IC50 (in test [1] (setting [2]); in the test with MV4-11 cells (setting [3]); in the test with Molm-13 cells (setting [4])) was under 10 nM each time.
On to `CC(C)CCNc1nc(Nc2ccc(C#N)cc2)ncc1C#CCCCNC(=O)[C@H](C)N(C)C(=O)/C=C/CN(C)C` [Compound 10-13], for which the IC50 (in test [1] (setting [2]); in the test with MV4-11 cells (setting [3]); in the test with Molm-13 cells (setting [4])) was under 10 nM in each case.
As to `C=CC(=O)NC(C)(C)C(=O)Nc1cccc(NC(=O)c2cnc(NCCc3ccncc3)nc2NCCC)c1` [Compound 2-4], the IC50 is under 10 nM in test [1] (setting [2]), under 10 nM with MV4-11 cells (setting [3]) and 10 to 100 nM in the test on Molm-13 cells (setting [4]).
Turning to `CCCNc1nc(Nc2ccc(OC)c(F)c2)ncc1C#CCCCNC(=O)[C@H](C)N(C)C(=O)/C=C/CN(C)C` [Compound 7-20, (S,E)-4-(Dimethylamino)-N-(1-((5-(2-((3-fluoro-4-methoxyphenyl)amino)-4-(propylamino)pyrimidin-5-yl)-4-pentyn-1-yl)amino)-1-oxopropan-2-yl)-N-methyl-2-butenamide], the IC50 (in test [1] (setting [2]); with MV4-11 cells (setting [3]); in the test with Molm-13 cells (setting [4])) was under 10 nM in each case.
`CCCNc1nc(Nc2ccc(C(N)=O)cc2)ncc1-c1ccc(CNC(=O)CNC(=O)/C=C/CN(C)C)cc1` [Compound 16-2]: the IC50 in test [1] (setting [2]) was under 10 nM; in the test on MV4-11 cells (setting [3]), 10 to 100 nM; in the test on Molm-13 cells (setting [4]) it was 100 to 1000 nM.
In the case of `CCCNc1nc(Nc2cnc3c(c2)c(C)nn3CCOC)ncc1C#CCCCNC(=O)[C@@H]1CCCN1C(=O)/C=C/CN(C)C` [Compound 22-46], the IC50 was under 10 nM in test [1] (setting [5]); under 10 nM with MV4-11 cells (MV4-11, MV4-11 cell); under 10 nM in the test with Molm-13 cells (MOLM-13, MOLM13 cell).
